Laboratory results as given in publication PMC11435058, “Synthesis of New Thiazole-Privileged Chalcones as Tubulin Polymerization Inhibitors with Potential Anticancer Activities” (Pharmaceuticals, 2024).

Experiments:
[1] = system: HOP-92; assay: NCI-60 anticancer screen (SRB; single dose and five doses); settings: Homo sapiens
[2] = system: HT29; assay: as above; settings: Homo sapiens
[3] = system: LOX IMVI; assay: as above; settings: Homo sapiens
[4] = system: MOLT-4; assay: as above; settings: Homo sapiens
[5] = system: OVCAR-5; assay: as above; settings: Homo sapiens
[6] = system: SK-MEL-5; assay: as above; settings: Homo sapiens
[7] = system: MDA-MB-468; assay: as above; type: cell-based, human
Procedure, shortened: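 NCI panel of about 60 human tumor cell lines treated with compound at a single concentration (10μM) for 48 h. Growth measured by SRB protein staining and expressed as percent growth of treated versus untreated control cells.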

[8] = system: COLO 205; assay: as above; settings: Homo sapiens
[9] = system: HCT-116; assay: as above; settings: Homo sapiens
[10] = system: EKVX; assay: as above; settings: Homo sapiens
[11] = system: ACHN; assay: as above; settings: Homo sapiens
[12] = system: KM12; assay: as above; settings: Homo sapiens
[13] = system: UACC-62; assay: as above; settings: Homo sapiens
[14] = system: HL-60(TB); assay: as above; settings: Homo sapiens
[15] = system: PC-3; assay: as above; settings: Homo sapiens
[16] = system: T-47D; assay: as above; settings: Homo sapiens, T47D
[17] = system: NCI/ADR-RES; assay: as above; settings: Homo sapiens
[18] = system: CCRF-CEM; assay: NCI-60 anticancer screen (SRB; single dose 10 μM and five doses); settings: Homo sapiens
[19] = system: A498; assay: NCI-60 anticancer screen (SRB; single dose and five doses); settings: Homo sapiens
[20] = system: MCF7; assay: as above; settings: Homo sapiens
[21] = system: UACC-257; assay: as above; settings: Homo sapiens
[22] = system: K-562; assay: as above; settings: Homo sapiens
[23] = system: 60 human tumor cell lines panel; assay: NCI-60 anticancer screen, whole panel (means and ranges over the cell lines); type: cell-based
[24] = system: SK-MEL-28; assay: NCI-60 anticancer screen (SRB; single dose and five doses); settings: Homo sapiens
[25] = system: DU-145; assay: as above; settings: Homo sapiens
[26] = 48 h, read-out: Growth Percentage
[27] = five doses, mean graph midpoint over all cell lines

`Cc1[nH]c(=S)sc1C(=O)/C=C/c1cccc(Cl)c1` [2e, (E)-3-(3-Chlorophenyl)-1-(4-Methyl-2-Thioxo-2,3-Dihydrothiazol-5-yl)Prop-2-En-1-One] gave a GI50 ([1]; HOP-92) of 3.55 µM, an IC50 ([1]; HOP-92) of 79.4 µM and a CC50 ([1]; HOP-92, read-out: LC50) greater than 100 µM. It also gave an IC (TGI) ([1]; HOP-92, read-out: TGI) of 30.9 µM, a GI50 ([2]; HT-29) of 2.24 µM and an IC50 ([2]; HT-29) of 3.55 µM. The activity at 10 µM ([2]; HT-29, 48 h, read-out: Growth Percentage) was 29.9%, the CC50 ([2]; HT-29, read-out: LC50) was 12.6 µM and the IC (TGI) ([2]; HT-29, read-out: TGI) was 4.9 µM. It also gave a GI50 [3] of 1.66 µM, an IC50 [3] of 2.88 µM and an activity at 10 µM [3, 26] of -26.1%. It also gave a CC50 ([3]; read-out: LC50) of 5.75 µM, an IC (TGI) ([3]; read-out: TGI) of 3.09 µM and a GI50 ([4]; MOLT-4) of 2.82 µM. It also gave an IC50 ([4]; MOLT-4) of 4.27 µM, an activity at 10 µM ([4]; MOLT-4, 48 h, read-out: Growth Percentage) of 19.8% and a CC50 ([4]; MOLT-4, read-out: LC50) greater than 100 µM. For the same molecule, the IC (TGI) ([4]; MOLT-4, read-out: TGI) was greater than 100 µM, the GI50 ([5]; OVCAR-5) was 5.25 µM and the IC50 ([5]; OVCAR-5) was 15.5 µM. It also gave an activity at 10 µM ([5]; OVCAR-5, 48 h, read-out: Growth Percentage) of 36.4%, a CC50 ([5]; OVCAR-5, read-out: LC50) of 57.5 µM and an IC (TGI) ([5]; OVCAR-5, read-out: TGI) of 19.9 µM. The GI50 ([6]; SK-MEL-5) was 4.79 µM, the IC50 ([6]; SK-MEL-5) was 9.12 µM and the activity at 10 µM ([6]; SK-MEL-5, 48 h, read-out: Growth Percentage) was 16.1%. It also gave a CC50 ([6]; SK-MEL-5, read-out: LC50) of 41.7 µM, an IC (TGI) ([6]; SK-MEL-5, read-out: TGI) of 17 µM and an activity at 10 µM ([7]; Homo sapiens, 48 h, MDA-MB-468, dose of 10 μM, read-out: Growth Percentage) of -7.12%. For the same molecule, the IC50 ([7]; Homo sapiens, MDA-MB-468, MDA-MB-468, Breast Cancer, five dose) was 12.6 µM, the GI50 ([7]; Homo sapiens, MDA-MB-468, Breast Cancer, five dose) was 3.8 µM and the CC50 ([7]; Homo sapiens, MDA-MB-468, Breast Cancer, five dose, read-out: LC50 (the source's name)) was 46.8 µM. The TGI ([7]; MDA-MB-468, Breast Cancer, five dose) was 15.85 µM, the GI50 ([8]; COLO 205) was 3.55 µM and the IC50 ([8]; COLO 205) was 5.25 µM. The activity at 10 µM ([8]; COLO 205, 48 h, read-out: Growth Percentage) was 70.7%, the CC50 ([8]; COLO 205, read-out: LC50) was 51.3 µM and the IC (TGI) ([8]; COLO 205, read-out: TGI) was 14.4 µM. For the same molecule, the GI50 ([9]; HCT-116) was 1.82 µM, the IC50 ([9]; HCT-116) was 2.95 µM and the activity at 10 µM ([9]; HCT-116, 48 h, read-out: Growth Percentage) was 3.28%. It also gave a CC50 ([9]; HCT-116, read-out: LC50) of 7.41 µM, an IC (TGI) ([9]; HCT-116, read-out: TGI) of 3.63 µM and a GI50 [10] of 10.5 µM. For the same molecule, the IC50 [10] was 24 µM, the activity at 10 µM [10, 26] was 34.7% and the CC50 ([10]; read-out: LC50) was 95.5 µM. It also gave an IC (TGI) ([10]; read-out: TGI) of 31.6 µM, a GI50 [11] of 2.29 µM and an IC50 [11] of 3.72 µM. For the same molecule, the activity at 10 µM [11, 26] was 22.9%, the CC50 ([11]; read-out: LC50) was 21.4 µM and the IC (TGI) ([11]; read-out: TGI) was 6.03 µM. The GI50 ([12]; KM12) was 1.95 µM, the IC50 ([12]; KM12) was 3.39 µM and the activity at 10 µM ([12]; KM12, 48 h, read-out: Growth Percentage) was -30.7%. For the same molecule, the IC (TGI) ([12]; KM12, read-out: TGI) was 3.89 µM, the GI50 ([13]; UACC-62) was 2.34 µM and the IC50 ([13]; UACC-62) was 4.17 µM. The activity at 10 µM ([13]; UACC-62, 48 h, read-out: Growth Percentage) was 30%, the IC (TGI) ([13]; UACC-62, read-out: TGI) was 8.71 µM and the GI50 ([14]; HL-60) was 2.24 µM. The IC50 ([14]; HL-60) was 4.27 µM, the activity at 10 µM ([14]; HL-60, 48 h, read-out: Growth Percentage) was 25.3% and the CC50 ([14]; HL-60, read-out: LC50) was greater than 100 µM. For the same molecule, the IC (TGI) ([14]; HL-60, read-out: TGI) was 7.08 µM, the GI50 ([15]; PC-3) was 2.88 µM and the IC50 ([15]; PC-3) was 4.9 µM. It also gave an activity at 10 µM ([15]; PC-3, 48 h, read-out: Growth Percentage) of 31.8%, a CC50 ([15]; PC-3, read-out: LC50) greater than 100 µM and an IC (TGI) ([15]; PC-3, read-out: TGI) of 13.8 µM. It also gave a GI50 [16] of 3.39 µM, an IC50 [16] of 7.94 µM and an activity at 10 µM [16, 26] of 4.54%. The CC50 ([16]; read-out: LC50) was greater than 100 µM, the IC (TGI) ([16]; read-out: TGI) was 20.9 µM and the GI50 [17] was 2.88 µM. For the same molecule, the IC50 [17] was 5.01 µM, the activity at 10 µM [17, 26] was -5.11% and the CC50 ([17]; read-out: LC50) was greater than 100 µM. It also gave an IC (TGI) ([17]; read-out: TGI) greater than 100 µM, a GI50 [18] of 2.45 µM and an IC50 [18] of 3.72 µM. The activity at 10 µM [18, 26] was 15.2%, the IC (TGI) ([18]; read-out: TGI) was 7.94 µM and the GI50 ([19]; A498) was 19.5 µM. It also gave an IC50 ([19]; A498) of 47.9 µM, an activity at 10 µM ([19]; A498, 48 h, read-out: Growth Percentage, A498, dose of 10 μM) of 98% and a CC50 ([19]; A498, read-out: LC50) of 91.2 µM. It also gave an IC (TGI) ([19]; A498, read-out: TGI) of 42.7 µM, a GI50 ([20]; MCF7) of 3.31 µM and an IC50 ([20]; MCF7) of 8.13 µM. The activity at 10 µM ([20]; MCF7, 48 h, read-out: Growth Percentage) was 7.9%, the CC50 ([20]; MCF7, read-out: LC50) was 37.1 µM and the IC (TGI) ([20]; MCF7, read-out: TGI) was 12.3 µM. For the same molecule, the GI50 ([21]; UACC-257) was 3.63 µM, the IC50 ([21]; UACC-257) was 9.77 µM and the activity at 10 µM ([21]; UACC-257, 48 h, read-out: Growth Percentage) was 52.7%. For the same molecule, the CC50 ([21]; UACC-257, read-out: LC50) was 63.1 µM, the IC (TGI) ([21]; UACC-257, read-out: TGI) was 14.8 µM and the GI50 ([22]; K562) was 3.39 µM. For the same molecule, the IC50 ([22]; K562) was 4.27 µM, the activity at 10 µM ([22]; K562, 48 h, read-out: Growth Percentage) was 16.8% and the CC50 ([22]; K562, read-out: LC50) was greater than 100 µM. The IC (TGI) ([22]; K562, read-out: TGI) was greater than 100 µM, the activity at 10 µM ([23]; Homo sapiens, 48 h, range over the cell lines, dose of 10 μM, read-out: growth percentages against most of the tested cells (lowest to highest)) was -26.1 to 98% and the “Log10GI50 _MID” value [23, 27] was -5.17 Molar. The “Log10LC50 _MID” value [23, 27] was -4.26 Molar, the “Log10TGI _MID” value [23, 27] was -4.66 Molar and the GI50 ([24]; SK-MEL-28) was 2.14 µM. The IC50 ([24]; SK-MEL-28) was 4.07 µM, the activity at 10 µM ([24]; SK-MEL-28, 48 h, read-out: Growth Percentage) was 44.7% and the CC50 ([24]; SK-MEL-28, read-out: LC50) was 13.5 µM. It also gave an IC (TGI) ([24]; SK-MEL-28, read-out: TGI) of 4.9 µM, a GI50 ([25]; DU-145) of 3.24 µM and an IC50 ([25]; DU-145) of 4.79 µM. For the same molecule, the activity at 10 µM ([25]; DU-145, 48 h, read-out: Growth Percentage) was 16.1%, the CC50 ([25]; DU-145, read-out: LC50) was 42.7 µM and the IC (TGI) ([25]; DU-145, read-out: TGI) was 11.5 µM.
